Read-outs that look alike come from different tables or passages of the source.
How the values were obtained:
Full-length human PRMT6 = molecular target: T1, Full-length human PRMT6 (Homo sapiens, UniProt Q96LA8); assay: PRMT6 biochemical assay (3H-SAM Flashplate, peptide substrate)
T1 construct: Flag-PRMT6-His was eluted with 200 ug/ml FLAG peptide in the same buffer; made in house; host or cells: HEK 293F cells (BacMam virus, pFastBacMam)
Summary of the method: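 Flag-PRMT6-His from baculovirus-infected cells, preincubated with compound 30 min at room temperature, then SAM/3H-SAM and biotinylated H4 36-50 peptide added; 20 mM Bicine pH 7.6, TCEP, BSG, Tween 20. Quenched with cold SAM, captured on streptavidin Flashplates; % inhibition from SAH/DMSO controls, 3- or 4-parameter IC50 fit.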

[1] = system: mono-methyl arginine in RKO cells; assay: RKO methylation assay, In Cell Western for mono-methyl arginine and DNA content; assay type: cell-based; details: Homo sapiens
[2] = In Cell Western, RKO cells, 72 hours, percent activation of mono-methyl arginine signal, read-out: EC30

T1 sequence (Q96LA8 with tags, fused parts or gaps): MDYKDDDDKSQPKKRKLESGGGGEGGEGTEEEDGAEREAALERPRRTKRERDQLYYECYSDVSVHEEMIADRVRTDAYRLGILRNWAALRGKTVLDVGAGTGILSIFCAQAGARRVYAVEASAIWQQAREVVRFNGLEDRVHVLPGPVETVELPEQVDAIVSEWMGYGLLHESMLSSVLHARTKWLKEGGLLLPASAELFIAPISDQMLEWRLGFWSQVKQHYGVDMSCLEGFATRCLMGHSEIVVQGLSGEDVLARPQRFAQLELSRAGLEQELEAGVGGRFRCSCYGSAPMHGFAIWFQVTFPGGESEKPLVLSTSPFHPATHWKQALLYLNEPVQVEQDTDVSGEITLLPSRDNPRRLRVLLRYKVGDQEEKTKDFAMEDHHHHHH

| SMILES | IC50 (Full-length human PRMT6) [nM] | EC30 [1, 2] [nM] | EC30 ([1]; RKO, 72 h) [nM] |
| --- | --- | --- | --- |
| Cc1c(F)cccc1-c1n[nH]cc1CN(C)CCN [Compound 129] | < 100 | 3010 to 12000 |  |
| CN(CCN)Cc1n[nH]cc1-c1ccc(OC2CC2)cc1 [Compound 119] | < 100 | 3010 to 12000 |  |
| COc1cccc(-c2n[nH]cc2CN(C)CCN)c1 [Compound 130] | < 100 | 3010 to 12000 |  |
| CN(CCN)Cc1n[nH]cc1-c1ccc(C2CC2)cc1 [Compound 104] | < 100 | 3010 to 12000 |  |
| CN(CCN)Cc1n[nH]cc1-c1ccc(OC(F)F)cc1 [Compound 138] | < 100 | < 3000 |  |
| COc1ccc(-c2n[nH]cc2CN(C)CCN)c(F)c1 [Compound 107] | < 100 | > 12000 |  |
| CN(CCN)Cc1c[nH]nc1-c1ccc(Cl)cc1 [Compound 95] | < 100 | < 3000 |  |
| Cc1ccc(C#N)cc1-c1n[nH]cc1CN(C)CCN [Compound 158] | 101 to 1000 | > 12000 |  |
| CCOc1ccc(-c2n[nH]cc2CN(C)CCN)cc1 [Compound 166] | < 100 | < 3000 |  |
| Cc1cc(F)ccc1-c1n[nH]cc1CN(C)CCN [Compound 152] | < 100 | 3010 to 12000 |  |
| COc1cc(-c2n[nH]cc2CN(C)CCN)ccc1F [Compound 142] | < 100 | < 3000 |  |
| CN(CCN)Cc1c[nH]nc1-c1ccc(C(F)(F)F)c(F)c1 [Compound 141] | < 100 | < 3000 |  |
| CN(CCN)Cc1n[nH]cc1-c1ccc(C(F)(F)F)cc1 [Compound 103] | < 100 | 3010 to 12000 |  |
| CN(CCN)Cc1n[nH]cc1-c1ccc(OC(F)(F)F)cc1 [Compound 105] | < 100 | < 3000 |  |
| COc1cc(F)ccc1-c1n[nH]cc1CN(C)CCN [Compound 151] | 101 to 1000 | 3010 to 12000 |  |
| CN(CCN)Cc1n[nH]cc1-c1ccc(C2CCOCC2)cc1 [Compound 145] | < 100 | < 3000 |  |
| Cc1ccccc1-c1n[nH]cc1CN(C)CCN [Compound 161] | < 100 | > 12000 |  |
| COc1ccc(-c2n[nH]cc2CN(C)CCN)c(Cl)c1 [Compound 146] | < 100 | 3010 to 12000 |  |
| CN(CCN)Cc1c[nH]nc1-c1ccc(Cl)cc1F [Compound 132] | < 100 |  | < 3000 |
| CCn1cc(CN(C)CCNC)c(-c2ccc(F)cc2)n1 [Compound 8] | 101 to 1000 | > 12000 |  |

| SMILES | IC50 (Full-length human PRMT6) [nM] | EC30 [1, 2] [nM] | EC30 ([1]; RKO, 72 h) [nM] |
| --- | --- | --- | --- |
| COc1ccccc1-c1n[nH]cc1CN(C)CCN [Compound 109] | 101 to 1000 | > 12000 |  |
| CN(CCN)Cc1cnn(CC(O)CO)c1-c1ccc(F)cc1 (stereo not shown) [Compound 113] | 101 to 1000 | > 12000 |  |
| NCCN(CCO)Cc1c[nH]nc1-c1ccc(F)cc1 [Compound 171] | 1010 to 3000 | > 12000 |  |
| CN(CCN)Cc1c[nH]nc1-c1ccc2c(c1)NC(=O)CO2 [Compound 173] | < 100 | > 12000 |  |
| CCN(C)C(=O)c1ccc(-c2n[nH]cc2CN(C)CCN)cc1 [Compound 163] | < 100 | > 12000 |  |
| CN(CCN)Cc1c[nH]nc1-c1cc(Cl)cc(Cl)c1 [Compound 137] | < 100 | 3010 to 12000 |  |
| COc1ccc(-c2n[nH]cc2CN(C)CCN)c(C(F)(F)F)c1 [Compound 154] | 101 to 1000 | > 12000 |  |
| CN(CCN)Cc1c[nH]nc1-c1cccc(Cl)c1 [Compound 122] | < 100 | 3010 to 12000 |  |
| CC(C)Oc1ccc(-c2n[nH]cc2CN(C)CCN)cc1F [Compound 97] | < 100 |  | < 3000 |
| CN(CCN)Cc1cn(CC2CCOCC2)nc1-c1ccc(F)cc1 [Compound 128] | 1010 to 3000 | > 12000 |  |
| CN(CCN)Cc1c[nH]nc1-c1cc(F)cc(Cl)c1 [Compound 121] | < 100 | < 3000 |  |
| Cc1ccc(-c2n[nH]cc2CN(C)CCN)c(F)c1 [Compound 108] | < 100 | > 12000 |  |
| CN(CCN)Cc1c[nH]nc1-c1ccc(OCC(F)(F)F)cc1 [Compound 96] | < 100 | < 3000 |  |
| CN(CCN1CCCC1)Cc1c[nH]nc1-c1ccc(C#N)cc1 [Compound 139] |  | > 12000 |  |
| CN(CCN)Cc1n[nH]cc1-c1ccc(C#N)cc1 [Compound 100] | < 100 | < 3000 |  |
| COc1ccc(-c2n[nH]cc2CN(C)CCN)c(C)c1 [Compound 155] | < 100 | 3010 to 12000 |  |
| CN(CCN)Cc1c[nH]nc1-c1ccc(F)cc1F [Compound 99] | < 100 | 3010 to 12000 |  |
| CC(C)CN(C)C(=O)c1ccc(-c2n[nH]cc2CN(C)CCN)cc1 [Compound 164] | < 100 | > 12000 |  |
| CN(CCN)Cc1c[nH]nc1-c1ccc(F)c(Cl)c1 [Compound 124] | < 100 | < 3000 |  |
| CN(CCN)Cc1c[nH]nc1-c1ccc(Cl)c(F)c1 [Compound 118] | < 100 | < 3000 |  |
